Source: US20260200937A1, “EXATECAN HYD[…] USE THEREOF” (HANGZHOU ADCORIS BIOPHARMA CO., LTD, priority 2023, published 2026)
pIC50: −log10 of the molar value. Where two headings read alike, the source gives them in different places.

How the values were obtained:
Format in all cases: cell-based
[1] = system: NCI-N87: human gastric cancer cells; assay: Tumor cell growth inhibition (CCK-8, 72 h), NCI-N87; conditions: 72 h incubation, read-out: IC50 for inhibiting the growth of tumor cells, NCI-N87
Procedure: (§1) • OE33: human esophageal cancer cells; • SK-BR-3: human breast cancer cells; • NCI-N87: human gastric cancer cells; • NCI-H1975: human lung cancer cells; • MDA-MB-231: human breast cancer cells; • NCI-H226: human lung squamous cell carcinoma cells; • TE12: human esophageal cancer cells.
(§2) Tumor cells OE33, SK-BR-3, NCI-N87, NCI-H1975, MDA-MB-231, NCI-H226, and TE12 were cultured separately in RPMI1640 (Cellmax) supplemented with 10% fetal bovine serum (Cellmax). Tumor cells in the exponential growth phase were diluted to a concentration of 1×10^5 cells/mL with culture medium and added to 96-well cell culture plates at 100 μL per well, then returned and incubated overnight in a 37° C. incubator with 5% CO2. On the following day, the compounds were diluted to concentrations of 10000 nM, 2000 nM, 400 nM, 80 nM, 16 nM, 3.2 nM, 0.64 nM, and 0.13 nM with culture medium, and the diluted compounds were added to the 96-well cell culture plates at 2 μL per well, with three replicate wells for each concentration. Negative control and blank control groups without addition of compounds were added with 2 μL of the dilution liquid per well. After the addition of the compounds, the plates were returned to the 37° C. incubator with 5% CO2 to continue the incubation for 72 h. After the incubation, the cell culture plates were removed, and the culture medium in the plates was aspirated using a pipette. Then, 100 μL of culture medium containing 10% CCK-8 was added to each well, and the plates were incubated at 37° C. for 3 h. After the incubation, the plates were removed, kept in the dark, and placed in an […]. Absorbance was measured at 630 nm as the reference wavelength and 450 nm as the test wavelength. Based on the absorbance values, the IC50 values (Table 1) were calculated using the four-parameter logistic regression method in GraphPad.

[2] = system: OE33: human esophageal cancer cells; assay: Tumor cell growth inhibition (CCK-8, 72 h), OE33; conditions: 72 h incubation, read-out: IC50 for inhibiting the growth of tumor cells, OE33
Procedure: as §1, §2

[3] = system: SK-BR-3: human breast cancer cells; assay: Tumor cell growth inhibition (CCK-8, 72 h), SK-BR-3; conditions: SK-BR-3 cells, 72 h incubation, read-out: IC50 for inhibiting the growth of tumor cells, SK-BR-3
Procedure: as §1, §2

[4] = system: NCI-H226: human lung squamous cell carcinoma cells; assay: Tumor cell growth inhibition (CCK-8, 72 h), NCI-H226; conditions: 72 h incubation, read-out: IC50 for inhibiting the growth of tumor cells, NCI-H226
Procedure: as §1, §2

[5] = system: TE12: human esophageal cancer cells; assay: Tumor cell growth inhibition (CCK-8, 72 h), TE12; conditions: 72 h incubation, read-out: IC50 for inhibiting the growth of tumor cells, TE12
Procedure: as §1, §2

[6] = system: NCI-H1975: human lung cancer cells; assay: Tumor cell growth inhibition (CCK-8, 72 h), NCI-H1975; conditions: 72 h incubation, read-out: IC50 for inhibiting the growth of tumor cells, NCI-H1975
Procedure: as §1, §2

[7] = system: MDA-MB-231: human breast cancer cells; assay: Tumor cell growth inhibition (CCK-8, 72 h), MDA-MB-231; conditions: MDA-MB-231 cells, 72 h incubation, read-out: IC50 for inhibiting the growth of tumor cells, MDA-MB-231
Procedure: as §1, §2

With `CC[C@@]1(O)C(=O)OCc2c1cc1n(c2=O)Cc2c-1nc1cc(F)c(C)c3c1c2[C@@H](NC(=O)[C@H](C)ONC)CC3` [Compound D3, N-(2′-methyl-2′-O—(N-methylamino)oxyacetyl)exatecan] the pIC50 ([1]; Homo sapiens) was 8.77, the pIC50 ([2]; Homo sapiens) was 8.42 and the pIC50 ([3]; Homo sapiens) was 8.32. The pIC50 ([4]; Homo sapiens) was 8.12, the pIC50 ([5]; Homo sapiens) was 7.73 and the pIC50 ([6]; Homo sapiens) was 7.43. It also gave a pIC50 ([7]; Homo sapiens) of 6.63.
Work on `[2H]C([2H])([2H])NOCC(=O)N[C@H]1CCc2c(C)c(F)cc3nc4c(c1c23)Cn1c-4cc2c(c1=O)COC(=O)[C@]2(O)CC` [Compound D1, N-(2′-O—(N-trideuteriomethylamino)oxyacetyl)exatecan] yielded a pIC50 ([1]; Homo sapiens) of 8.61, a pIC50 ([2]; Homo sapiens) of 8.36 and a pIC50 ([3]; Homo sapiens) of 8.59. The pIC50 ([4]; Homo sapiens) was 7.64, the pIC50 ([5]; Homo sapiens) was 7.44 and the pIC50 ([6]; Homo sapiens) was 7.19. For the same molecule, the pIC50 ([7]; Homo sapiens) was 6.74.
For `CC[C@@]1(O)C(=O)OCc2c1cc1n(c2=O)Cc2c-1nc1cc(F)c(C)c3c1c2[C@@H](NC(=O)C1(ONC)CCC1)CC3` [Compound D2, N-(1′-O—(N-methylamino)oxycyclobutane-1′-carbonyl)exatecan], the pIC50 ([1]; Homo sapiens) was 8.95, the pIC50 ([2]; Homo sapiens) was 8.71 and the pIC50 ([3]; Homo sapiens) was 8.58. It also gave a pIC50 ([4]; Homo sapiens) of 8.20, a pIC50 ([5]; Homo sapiens) of 7.87 and a pIC50 ([6]; Homo sapiens) of 7.57. The pIC50 ([7]; Homo sapiens) was 6.63.
Work on `CC[C@@]1(O)C(=O)OCc2c1cc1n(c2=O)Cc2c-1nc1cc(F)c(C)c3c1c2[C@@H](NC(=O)C1CNOC1)CC3` (stereo partly drawn) [Compound D5, N-(isoxazolidine-4′-carbonyl)exatecan] yielded a pIC50 ([1]; Homo sapiens) of 8.16, a pIC50 ([2]; Homo sapiens) of 7.65 and a pIC50 ([3]; Homo sapiens) of 7.81. For the same molecule, the pIC50 ([4]; Homo sapiens) was 7.30, the pIC50 ([5]; Homo sapiens) was 7.02 and the pIC50 ([6]; Homo sapiens) was 7.01. It also gave a pIC50 ([7]; Homo sapiens) of 6.45.
Work on `CC[C@@]1(O)C(=O)OCc2c1cc1n(c2=O)Cc2c-1nc1cc(F)c(C)c3c1c2[C@@H](NC(=O)CO)CC3` [Dxd, reference compound] yielded a pIC50 [1] of 8.61, a pIC50 [2] of 8.15 and a pIC50 [3] of 8.01. For the same molecule, the pIC50 [4] was 7.12, the pIC50 [5] was 7.67 and the pIC50 [6] was 7.59. For the same molecule, the pIC50 [7] was 6.50.
`[2H]C([2H])([2H])NOC([2H])([2H])C(=O)N[C@H]1CCc2c(C)c(F)cc3nc4c(c1c23)Cn1c-4cc2c(c1=O)COC(=O)[C@]2(O)CC` [Compound D4, N-(2′,2′-dideuterio-2′-O—(N-trideuteriomethylamino)oxyacetyl)exatecan] was tested, and the pIC50 ([1]; Homo sapiens) was 8.43, the pIC50 ([2]; Homo sapiens) was 8.25 and the pIC50 ([3]; Homo sapiens) was 8.35. The pIC50 ([4]; Homo sapiens) was 7.68, the pIC50 ([5]; Homo sapiens) was 7.48 and the pIC50 ([6]; Homo sapiens) was 7.19. For the same molecule, the pIC50 ([7]; Homo sapiens) was 6.37.
